Experiments:
Conditions in all cases: Compound concentration 10.0 uM
[1] = molecular target: Alpha-2C adrenergic receptor (Homo sapiens) (UniProt P18825)
[2] = molecular target: T1, Muscarinic acetylcholine receptor M1 (Homo sapiens) (UniProt P11229)
T1 sequence (whole entry): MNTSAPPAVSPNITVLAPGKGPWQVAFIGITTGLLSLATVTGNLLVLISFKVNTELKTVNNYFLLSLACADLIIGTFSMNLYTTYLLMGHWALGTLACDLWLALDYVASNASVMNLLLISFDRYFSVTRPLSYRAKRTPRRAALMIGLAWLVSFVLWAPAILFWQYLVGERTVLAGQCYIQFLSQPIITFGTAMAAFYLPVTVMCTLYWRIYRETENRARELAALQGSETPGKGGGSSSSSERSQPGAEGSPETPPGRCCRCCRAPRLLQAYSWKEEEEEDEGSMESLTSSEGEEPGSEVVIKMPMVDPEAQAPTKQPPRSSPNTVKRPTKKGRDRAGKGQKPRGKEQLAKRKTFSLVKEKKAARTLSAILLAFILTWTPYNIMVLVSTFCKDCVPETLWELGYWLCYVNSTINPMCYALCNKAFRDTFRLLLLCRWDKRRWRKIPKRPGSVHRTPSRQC

[3] = molecular target: Delta-type opioid receptor (Homo sapiens) (UniProt P41143)
Sequence of Delta-type opioid receptor (Homo sapiens) (P41143 whole entry): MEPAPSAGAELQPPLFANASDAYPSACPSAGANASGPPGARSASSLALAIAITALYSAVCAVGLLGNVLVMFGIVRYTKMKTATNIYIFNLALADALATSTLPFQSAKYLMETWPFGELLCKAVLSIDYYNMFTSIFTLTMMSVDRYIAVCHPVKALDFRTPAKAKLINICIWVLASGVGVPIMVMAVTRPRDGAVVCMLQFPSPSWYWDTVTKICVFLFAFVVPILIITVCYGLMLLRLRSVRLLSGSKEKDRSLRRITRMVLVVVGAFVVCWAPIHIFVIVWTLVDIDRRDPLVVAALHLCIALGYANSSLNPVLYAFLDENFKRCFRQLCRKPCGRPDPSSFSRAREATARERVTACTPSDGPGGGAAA

[4] = molecular target: Mu-type opioid receptor (Homo sapiens) (UniProt P35372)
Sequence of Mu-type opioid receptor (Homo sapiens) (P35372 whole entry): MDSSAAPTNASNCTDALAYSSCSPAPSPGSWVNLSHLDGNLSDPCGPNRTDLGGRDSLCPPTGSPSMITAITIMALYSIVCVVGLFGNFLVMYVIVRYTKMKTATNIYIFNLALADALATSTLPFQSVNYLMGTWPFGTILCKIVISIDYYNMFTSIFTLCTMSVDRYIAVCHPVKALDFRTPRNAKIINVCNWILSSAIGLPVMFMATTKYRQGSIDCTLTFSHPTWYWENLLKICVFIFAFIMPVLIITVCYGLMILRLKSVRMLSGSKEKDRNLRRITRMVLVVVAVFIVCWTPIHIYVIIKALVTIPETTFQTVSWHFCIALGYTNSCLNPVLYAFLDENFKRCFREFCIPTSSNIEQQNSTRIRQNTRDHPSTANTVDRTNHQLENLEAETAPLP

[5] = molecular target: T2, GABA-A receptor; anion channel (Rattus norvegicus) (UniProt O09028+P15431+P18506+P18508+P19969+P20236+P23574+P23576+P28471+P28473+P30191+P62813+P63079+P63138+Q91ZM7+Q9ES14)
[6] = molecular target: Alpha-2B adrenergic receptor (Homo sapiens) (UniProt P18089)
Sequence of Alpha-2B adrenergic receptor (Homo sapiens) (P18089 whole entry): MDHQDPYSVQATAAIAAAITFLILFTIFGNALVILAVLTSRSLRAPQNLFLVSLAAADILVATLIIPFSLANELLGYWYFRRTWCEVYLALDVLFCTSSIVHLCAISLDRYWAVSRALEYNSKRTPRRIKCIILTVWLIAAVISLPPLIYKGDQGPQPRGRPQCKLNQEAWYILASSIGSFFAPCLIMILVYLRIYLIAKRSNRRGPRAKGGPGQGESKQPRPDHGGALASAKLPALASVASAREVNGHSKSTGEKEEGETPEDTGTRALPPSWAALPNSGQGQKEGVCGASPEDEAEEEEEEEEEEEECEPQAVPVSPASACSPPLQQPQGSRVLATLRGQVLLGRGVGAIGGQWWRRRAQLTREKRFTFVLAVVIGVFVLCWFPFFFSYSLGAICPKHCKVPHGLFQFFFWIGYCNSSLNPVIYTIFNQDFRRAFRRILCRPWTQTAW

[7] = molecular target: 5-hydroxytryptamine receptor 6 (Homo sapiens) (UniProt P50406)
[8] = molecular target: T3, Muscarinic acetylcholine receptor M2 (Homo sapiens) (UniProt P08172)
T3 sequence (whole entry): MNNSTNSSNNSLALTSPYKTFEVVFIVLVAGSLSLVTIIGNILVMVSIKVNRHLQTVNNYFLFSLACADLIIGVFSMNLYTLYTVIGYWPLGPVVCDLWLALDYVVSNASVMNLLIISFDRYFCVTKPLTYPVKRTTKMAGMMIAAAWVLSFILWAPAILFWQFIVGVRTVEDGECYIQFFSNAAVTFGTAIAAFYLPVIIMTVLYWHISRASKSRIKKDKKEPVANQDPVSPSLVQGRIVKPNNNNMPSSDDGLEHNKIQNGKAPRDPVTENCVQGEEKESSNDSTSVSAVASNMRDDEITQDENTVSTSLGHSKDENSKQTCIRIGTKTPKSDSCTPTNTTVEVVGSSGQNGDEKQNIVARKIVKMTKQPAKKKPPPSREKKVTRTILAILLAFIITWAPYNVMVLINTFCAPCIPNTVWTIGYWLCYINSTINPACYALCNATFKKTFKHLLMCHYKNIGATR

[9] = molecular target: Alpha-1D adrenergic receptor (Homo sapiens) (UniProt P25100)
Sequence of Alpha-1D adrenergic receptor (Homo sapiens) (P25100 whole entry): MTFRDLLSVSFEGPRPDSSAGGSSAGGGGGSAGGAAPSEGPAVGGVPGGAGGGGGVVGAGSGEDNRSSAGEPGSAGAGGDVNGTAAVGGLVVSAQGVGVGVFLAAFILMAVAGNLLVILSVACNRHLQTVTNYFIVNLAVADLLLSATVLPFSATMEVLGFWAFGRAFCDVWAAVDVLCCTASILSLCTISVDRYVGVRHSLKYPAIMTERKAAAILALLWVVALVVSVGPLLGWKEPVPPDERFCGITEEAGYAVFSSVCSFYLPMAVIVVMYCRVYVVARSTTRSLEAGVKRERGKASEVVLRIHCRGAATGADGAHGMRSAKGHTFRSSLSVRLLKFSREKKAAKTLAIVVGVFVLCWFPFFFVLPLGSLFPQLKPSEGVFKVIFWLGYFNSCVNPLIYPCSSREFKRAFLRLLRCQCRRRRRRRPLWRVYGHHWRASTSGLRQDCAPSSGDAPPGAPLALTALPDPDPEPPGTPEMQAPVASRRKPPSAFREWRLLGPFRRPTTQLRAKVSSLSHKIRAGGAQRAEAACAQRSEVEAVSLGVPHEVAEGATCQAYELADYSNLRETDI

[10] = molecular target: Muscarinic acetylcholine receptor M4 (Homo sapiens) (UniProt P08173)
Sequence of Muscarinic acetylcholine receptor M4 (Homo sapiens) (P08173 whole entry): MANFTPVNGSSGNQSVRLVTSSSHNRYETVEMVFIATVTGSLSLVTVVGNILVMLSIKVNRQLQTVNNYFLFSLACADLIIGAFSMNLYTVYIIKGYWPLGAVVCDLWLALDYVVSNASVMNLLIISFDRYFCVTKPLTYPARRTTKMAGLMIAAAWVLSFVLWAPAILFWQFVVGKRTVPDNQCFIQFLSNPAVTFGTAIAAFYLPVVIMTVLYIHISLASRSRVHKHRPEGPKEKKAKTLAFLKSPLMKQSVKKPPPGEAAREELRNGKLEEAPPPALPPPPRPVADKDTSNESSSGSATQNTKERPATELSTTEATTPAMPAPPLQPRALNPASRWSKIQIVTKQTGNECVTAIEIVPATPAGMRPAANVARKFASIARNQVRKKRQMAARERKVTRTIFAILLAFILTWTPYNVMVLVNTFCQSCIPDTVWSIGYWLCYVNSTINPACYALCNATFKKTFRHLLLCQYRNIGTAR

[11] = molecular target: 5-hydroxytryptamine receptor 7 (Homo sapiens) (UniProt P34969)
Sequence of 5-hydroxytryptamine receptor 7 (Homo sapiens) (P34969 whole entry): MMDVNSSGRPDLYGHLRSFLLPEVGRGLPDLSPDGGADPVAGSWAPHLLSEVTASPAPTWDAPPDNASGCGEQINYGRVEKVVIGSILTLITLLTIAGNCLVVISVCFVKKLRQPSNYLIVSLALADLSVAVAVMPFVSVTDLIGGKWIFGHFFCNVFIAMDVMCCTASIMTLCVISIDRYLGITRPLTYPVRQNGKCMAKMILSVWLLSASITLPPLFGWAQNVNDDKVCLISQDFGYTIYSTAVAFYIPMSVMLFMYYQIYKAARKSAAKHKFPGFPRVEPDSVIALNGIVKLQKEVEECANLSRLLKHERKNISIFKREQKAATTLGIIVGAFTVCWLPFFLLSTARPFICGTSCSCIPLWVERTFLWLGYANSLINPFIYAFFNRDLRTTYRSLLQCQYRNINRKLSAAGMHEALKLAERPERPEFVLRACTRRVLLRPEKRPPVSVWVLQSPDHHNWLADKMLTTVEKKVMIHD

[12] = molecular target: Muscarinic acetylcholine receptor M3 (Homo sapiens) (UniProt P20309)
[13] = molecular target: Alpha-1A adrenergic receptor (Homo sapiens) (UniProt P35348)
Sequence of Alpha-1A adrenergic receptor (Homo sapiens) (P35348 whole entry): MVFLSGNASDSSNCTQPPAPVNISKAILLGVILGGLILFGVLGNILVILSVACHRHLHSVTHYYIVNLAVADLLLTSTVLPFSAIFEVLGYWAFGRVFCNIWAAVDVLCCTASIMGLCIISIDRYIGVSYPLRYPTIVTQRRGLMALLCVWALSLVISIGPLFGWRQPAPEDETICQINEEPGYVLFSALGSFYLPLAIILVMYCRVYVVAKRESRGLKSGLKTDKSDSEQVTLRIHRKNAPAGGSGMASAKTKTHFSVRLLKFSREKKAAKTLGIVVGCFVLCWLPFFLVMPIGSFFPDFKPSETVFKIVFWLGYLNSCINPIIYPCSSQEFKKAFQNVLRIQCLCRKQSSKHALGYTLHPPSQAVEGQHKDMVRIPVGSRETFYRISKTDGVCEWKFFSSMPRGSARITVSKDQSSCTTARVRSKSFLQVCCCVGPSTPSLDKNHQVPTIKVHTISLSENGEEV

[14] = molecular target: Alpha-2A adrenergic receptor (Homo sapiens) (UniProt P08913)
[15] = molecular target: 5-hydroxytryptamine receptor 2C (Homo sapiens) (UniProt P28335)
[16] = molecular target: Histamine H1 receptor (Homo sapiens) (UniProt P35367)
Sequence of Histamine H1 receptor (Homo sapiens) (P35367 whole entry): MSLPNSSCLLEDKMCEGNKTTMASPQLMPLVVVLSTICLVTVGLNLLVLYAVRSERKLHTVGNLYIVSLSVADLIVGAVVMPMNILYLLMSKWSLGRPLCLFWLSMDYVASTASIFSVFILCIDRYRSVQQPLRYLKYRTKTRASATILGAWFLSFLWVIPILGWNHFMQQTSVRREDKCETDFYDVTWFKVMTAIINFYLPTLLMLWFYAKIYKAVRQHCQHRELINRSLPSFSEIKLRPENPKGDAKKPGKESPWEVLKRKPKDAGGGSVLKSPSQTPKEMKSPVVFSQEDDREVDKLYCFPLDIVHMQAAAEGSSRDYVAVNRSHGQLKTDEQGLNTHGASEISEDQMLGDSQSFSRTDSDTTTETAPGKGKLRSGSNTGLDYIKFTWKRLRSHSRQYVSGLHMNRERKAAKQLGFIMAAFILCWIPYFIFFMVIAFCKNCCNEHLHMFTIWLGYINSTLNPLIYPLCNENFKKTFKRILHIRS

[17] = molecular target: Sodium-dependent serotonin transporter (Homo sapiens, UniProt P31645)
[18] = molecular target: D(2) dopamine receptor (Homo sapiens) (UniProt P14416)
Sequence of D(2) dopamine receptor (Homo sapiens) (P14416 whole entry): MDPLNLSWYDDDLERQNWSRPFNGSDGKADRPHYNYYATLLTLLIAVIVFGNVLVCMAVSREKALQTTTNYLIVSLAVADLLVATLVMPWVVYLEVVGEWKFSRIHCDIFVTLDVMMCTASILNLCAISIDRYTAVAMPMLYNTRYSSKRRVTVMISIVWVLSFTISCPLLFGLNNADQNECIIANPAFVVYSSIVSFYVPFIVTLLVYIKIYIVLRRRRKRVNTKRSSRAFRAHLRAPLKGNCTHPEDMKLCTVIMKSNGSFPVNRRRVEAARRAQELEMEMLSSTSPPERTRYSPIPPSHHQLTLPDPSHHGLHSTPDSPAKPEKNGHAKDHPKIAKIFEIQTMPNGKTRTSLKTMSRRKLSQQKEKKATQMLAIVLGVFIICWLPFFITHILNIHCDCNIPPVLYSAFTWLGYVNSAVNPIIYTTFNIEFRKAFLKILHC

[19] = species: Rattus norvegicus
[20] = molecular target: T4, Alpha-1B adrenergic receptor (Homo sapiens) (UniProt P35368)
T4 sequence (whole entry): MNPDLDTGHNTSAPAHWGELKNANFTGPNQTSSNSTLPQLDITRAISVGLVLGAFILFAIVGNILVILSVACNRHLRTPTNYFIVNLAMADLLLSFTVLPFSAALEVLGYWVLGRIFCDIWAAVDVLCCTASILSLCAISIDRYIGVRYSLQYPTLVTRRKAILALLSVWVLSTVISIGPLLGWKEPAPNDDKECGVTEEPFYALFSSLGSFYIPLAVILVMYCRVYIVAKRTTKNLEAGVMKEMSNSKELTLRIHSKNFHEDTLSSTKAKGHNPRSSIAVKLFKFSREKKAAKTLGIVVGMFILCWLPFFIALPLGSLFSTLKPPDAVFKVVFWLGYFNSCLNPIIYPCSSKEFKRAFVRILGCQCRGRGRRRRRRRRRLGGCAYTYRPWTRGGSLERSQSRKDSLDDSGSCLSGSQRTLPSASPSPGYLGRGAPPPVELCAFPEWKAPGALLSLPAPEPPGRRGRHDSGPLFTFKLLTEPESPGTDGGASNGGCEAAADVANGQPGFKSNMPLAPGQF

[21] = molecular target: T2, GABA-A receptor; anion channel (Rattus norvegicus); remark: listed apart in the source
[22] = molecular target: 5-hydroxytryptamine receptor 1D (Homo sapiens) (UniProt P28221)
Sequence of 5-hydroxytryptamine receptor 1D (Homo sapiens) (P28221 whole entry): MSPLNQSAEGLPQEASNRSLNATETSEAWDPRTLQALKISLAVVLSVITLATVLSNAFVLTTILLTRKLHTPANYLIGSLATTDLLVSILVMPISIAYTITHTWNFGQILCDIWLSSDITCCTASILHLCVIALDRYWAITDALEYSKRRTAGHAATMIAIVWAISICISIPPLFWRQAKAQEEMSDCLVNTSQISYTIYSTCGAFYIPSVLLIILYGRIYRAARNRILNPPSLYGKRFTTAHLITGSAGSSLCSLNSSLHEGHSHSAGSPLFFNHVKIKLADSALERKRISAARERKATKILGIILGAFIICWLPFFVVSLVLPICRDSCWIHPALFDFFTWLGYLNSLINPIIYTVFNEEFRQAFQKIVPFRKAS

[23] = molecular target: D(4) dopamine receptor (Homo sapiens) (UniProt P21917)
Sequence of D(4) dopamine receptor (Homo sapiens) (P21917 whole entry): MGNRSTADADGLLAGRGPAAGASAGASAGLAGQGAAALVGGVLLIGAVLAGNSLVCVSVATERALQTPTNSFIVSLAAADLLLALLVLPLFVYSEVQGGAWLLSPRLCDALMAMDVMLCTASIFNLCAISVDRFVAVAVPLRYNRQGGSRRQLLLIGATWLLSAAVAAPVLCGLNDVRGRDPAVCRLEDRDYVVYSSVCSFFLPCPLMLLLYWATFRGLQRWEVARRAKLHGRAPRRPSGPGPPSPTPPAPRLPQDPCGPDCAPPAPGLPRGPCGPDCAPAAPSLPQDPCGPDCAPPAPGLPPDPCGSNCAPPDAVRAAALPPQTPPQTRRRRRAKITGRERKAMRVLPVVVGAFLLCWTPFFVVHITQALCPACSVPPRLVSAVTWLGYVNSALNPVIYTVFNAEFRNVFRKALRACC

[24] = molecular target: Beta-1 adrenergic receptor (Homo sapiens) (UniProt P08588)

Compound: CC(=O)Nc1ncc(CN2CCC[C@H](Cc3cc(C)nc(C)c3)C2)s1 [JNJ-65355394]
- inhibition [1]: 31.9%
- inhibition [2]: 6.18%
- inhibition [3]: 11.8%
- inhibition [4]: 12.8%
- inhibition [5]: 8.07%
- inhibition [6]: 44.8%
- inhibition [7]: 14.3%
- inhibition [8]: 9.54%
- inhibition [9]: 8.3%
- inhibition [10]: -5.53%
- inhibition [11]: 9.6%
- inhibition [12]: 8.4%
- inhibition [13]: 2.36%
- inhibition [14]: 8.68%
- inhibition [15]: 15.2%
- inhibition [16]: 44%
- inhibition [17]: 7.21%
- inhibition [18]: 0.63%
- inhibition [19]: 5.69%
- inhibition [20]: -5.2%
- inhibition [21]: -8.39%
- inhibition [22]: 11.6%
- inhibition [23]: 3.53%
- inhibition [24]: 3.29%

Compound: CC(=O)Nc1nc(CN2CCC[C@H](Cc3cc(C)nc(C)c3)C2)cs1 [JNJ-73924149]
- inhibition [1]: 36.5%
- inhibition [2]: 25.4%
- inhibition [3]: 8.67%
- inhibition [4]: 27.3%
- inhibition [5]: 43.5%
- inhibition [6]: 59.1%
- inhibition [7]: 25.6%
- inhibition [8]: 8.65%
- inhibition [9]: 7.45%
- inhibition [10]: 8.78%
- inhibition [11]: 2.58%
- inhibition [12]: -9.98%
- inhibition [13]: -1.89%
- inhibition [14]: 31.7%
- inhibition [15]: 16.3%
- inhibition [16]: 44.2%
- inhibition [17]: 52.3%
- inhibition [18]: 8.04%
- inhibition [19]: 11.2%
- inhibition [20]: -3.57%
- inhibition [21]: 43.6%
- inhibition [22]: 14.5%
- inhibition [23]: 6.82%
- inhibition [24]: 4.41%
